In publication PMC3691639, “Aldose reductase from Schistosoma japonicum: crystallization and structure-based inhibitor screening for discovering antischistosomal lead compounds” (Parasites & Vectors, 2013):

Target: T1, recombinant Schistosoma japonicum aldose reductase (rSjAR; SjAR) (Schistosoma japonicum, UniProt Q5DD64)
T1 construct: gene Akr1b4; SjAR-pET28a plasmid, expressed in E. coli BL21(DE3)
T1 sequence (Q5DD64 1-310): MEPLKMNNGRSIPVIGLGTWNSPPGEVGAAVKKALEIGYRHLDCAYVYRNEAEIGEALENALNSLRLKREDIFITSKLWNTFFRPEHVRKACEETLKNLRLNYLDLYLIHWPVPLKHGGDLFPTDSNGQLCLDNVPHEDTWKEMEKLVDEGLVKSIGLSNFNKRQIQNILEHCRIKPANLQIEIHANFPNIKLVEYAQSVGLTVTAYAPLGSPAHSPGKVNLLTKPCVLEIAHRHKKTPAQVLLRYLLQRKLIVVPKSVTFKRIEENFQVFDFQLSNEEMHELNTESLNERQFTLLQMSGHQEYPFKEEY
Experiment: NADPH depletion at […] nm, microplate
Assay type: biochemical

How did the IC50 turn out when `O=C1c2ccccc2C(=C2c3ccccc3C(=O)c3ccccc32)c2ccccc21` [AR9] was run?
Its IC50 is 30.6 µM.
